pIC50: −log10 of the molar value.
System: HSV-1
Experiment: HSV-1 infection of Vero 76 cells, HSV DNA hybridization capture assay
Type: cell-based, herpes simplex virus 1
Conditions: Human alphaherpesvirus 1; HSV-1 (MOI=0.001) in Vero 76 cells, 40–48 hours at 37° C., viral DNA by hybridization/chemiluminescence
Description: Vero 76 cells were maintained in MEM with Earle's salts, L-glutamine, 8% FBS (Hyclone, A-1111-L) and 100 units/mL Penicillin-100 μg/mL Streptomycin. For assay conditions, FBS was reduced to 2%. Cells are seeded into 96-well tissue culture plates at a density of 5×10^4 cells/well after being incubated for 45 min at 37° C. in the presence of HSV-1 or HSV-2 (MOI=0.001). Test compounds are added to the wells and the plates are incubated at 37° C. for 40–48 hours. Cell lysates are prepared as follows: media was removed and replaced with 150 μL/well 0.2 N NaOH with 1% Igepal CA 630 or NP-40. Plates were incubated up to 14 days at room temperature in a humidified chamber to prevent evaporation.
For the detection probe, a gel-purified, digoxigenin-labeled, […] PCR fragment of the HSV UL-15 sequence was utilized. PCR conditions included 0.5 μM primers, 180 μM dTP, 20 μM dUTP-digoxigenin (Boehringer Mannheim 1558706), 200 μM each of dATP, dCTP, and dGTP, 1×PCR Buffer II (Perkin Elmer), 2.5 mM MgCl2, 0.025 units/μL of AmpliTaq Gold polymerase (Perkin Elmer), and 5 ng of gel-purified HSV DNA per 100 μL Extension conditions were 10 min at 95° C., followed by 30 cycles of 95° C. for 1 min, 55° C. for 30 sec, and 72° C. for 2 min. The amplification was completed with a 10-min incubation at 72° C. Primers were selected to amplify a 728 bp probe spanning a section of the HSV1 UL15 open reading frame (nucleotides 249–977). Single-stranded transcripts were purified with Promega M13 Wizard kits. The final product was mixed 1:1 with a mixture of 6 M GuSCN, 100 mM EDTA and 200 μg/mL herring sperm DNA and stored at 4° C.
The capture DNA plasmid (HSV UL13 region in pUC) was linearized by cutting with Xba I, denatured for 15 min at 95° C. and diluted immediately into Reacti-Bind DNA Coating Solution (Pierce, 17250, diluted 1:1 with TE buffer, pH 8) at 1 ng/μL 75 μL/well were added to Corning (#3922 or 9690) white 96-well plates and incubated at room temperature for at least 4 hrs before washing twice with 300 μL/well 0.2×SSC/0.05% Tween-20 (SSC/T buffer). The plates were then incubated overnight at room temperature with 150 μL/well 0.2 N NaOH, 1% IGEPAL and 10 μg/mL herring sperm DNA.
Twenty-seven (27) μL of cell lysate was combined with 45 μL of hybridization solution (final concentration: 3M GuSCN, 50 mM EDTA, 100 μg/ml salmon sperm DNA, 5× Denhardt's solution, 0.25×APE, and 5 ng of the digoxigenin-labeled detection probe). APE is 1.5 M NH4-acetate, 0.15 M ammonium phosphate monobasic, and 5 mM EDTA adjusted to pH 6.0. Mineral oil (50 μL) was added to prevent evaporation. The hybridization plates were incubated at 95° C. for 10 minutes to denature the DNA, then incubated at 42° C. overnight. The wells were washed 6× with 300 μL/well SSC/T buffer then incubated with 75 μL/well anti-digoxigenin-HRP-conjugated antibody (Boehringer Mannheim 1207733, 1:5000 in TE) for 30 min at room temperature. The wells were washed 6× with 300 μL/well with PBS/0.05% Tween-20 before 75 μL/well SuperSignal LBA substrate (Pierce) was added. The plates were incubated at room temperature for 30 minutes and chemiluminescence was measured in a Wallac Victor reader.
The following results were obtained for HSV-1.

Compound	pIC50
CCCc1nn2ccccc2c1-c1ccnc(F)c1 [Example 1, 3-(2-Fluoropyridin-4-yl)-2-propylpyrazolo[1,5-a]pyridine]	< 4.40
CCCc1nn2ccccc2c1-c1ccnc(NC2CCCC2)c1 [Example 2, N-Cyclopentyl-4-(2-propylpyrazolo[1,5-a]pyridin-3-yl)pyridin-2-amine]	5.10
CCCc1nn2c(Cl)cccc2c1-c1ccnc(F)c1 [Example 3, 7-Chloro-3-(2-fluoropyridin-4-yl)-2-propylpyrazolo[1,5-a]pyridine]	4.43
CCCc1nn2c(NC3CCCC3)cccc2c1-c1ccnc(NC2CCCC2)c1 [Example 4, N-Cyclopentyl-3-[2-(cyclopentylamino)pyridin-4-yl]-2-propylpyrazolo[1,5-a]pyridin-7-amine]	6.05
CSc1nccc(-c2c(CC(C)C)nn3ccccc23)n1 [Example 5, 2-Isobutyl-3-[2-(methylthio)pyrimidin-4-yl]pyrazolo[1,5-a]pyridine]	4.68
CC(C)Cc1nn2ccccc2c1-c1ccnc([S+](C)[O-])n1 (centres unmarked) [Example 6, 2-Isobutyl-3-[2-(methylsulfinyl)pyrimidin-4-yl]pyrazolo[1,5-a]pyridine]	4.62
CC(C)Cc1nn2ccccc2c1-c1ccnc(NC2CCCC2)n1 [Example 7, N-Cyclopentyl-4-(2-isobutylpyrazolo[1,5-a]pyridin-3-yl)pyrimidin-2-amine]	4.74
CSc1cccc2c(-c3ccnc(NC4CCCC4)n3)c(CC(C)C)nn12 [Example 8, N-Cyclopentyl-4-[2-isobutyl-7-(methylthio)pyrazolo[1,5-a]pyridin-3-yl]pyrimidin-2-amine]	5.42
CC(C)Cc1nn2c([S+](C)[O-])cccc2c1-c1ccnc(NC2CCCC2)n1 (centres unmarked) [Example 9, N-Cyclopentyl-4-[2-isobutyl-7-(methylsulfinyl)pyrazolo[1,5-a]pyridin-3-yl]pyrimidin-2-amine]	5.72
CC(C)Cc1nn2c(NC3CCCC3)cccc2c1-c1ccnc(NC2CCCC2)n1 [Example 10, N-Cyclopentyl-3-[2-(cyclopentylamino)pyrimidin-4-yl]-2-isobutylpyrazolo[1,5-a]pyridin-7-amine]	6.30
CSc1nccc(-c2c(C=O)nn3ccccc23)n1 [Example 12, 3-[2-(Methylthio)pyrimidin-4-yl]pyrazolo[1,5-a]pyridine-2-carbaldehyde]	< 5.30
OC(c1ccccc1)c1nn2ccccc2c1-c1ccnc(NC2CCCC2)n1 (centres unmarked) [Example 14, {3-[2-(Cyclopentylamino)-4-pyrimidinyl]pyrazolo[1,5-a]pyridin-2-yl}(phenyl)methanol]	5.60
O=C(c1ccccc1)c1nn2ccccc2c1-c1ccnc(NC2CCCC2)n1 [Example 15, {3-[2-(Cyclopentylamino)-4-pyrimidinyl]pyrazolo[1,5-a]pyridin-2-yl}(phenyl)methanone]	5.15
O=C(c1ccccc1)c1nn2c(NC3CCCC3)cccc2c1-c1ccnc(NC2CCCC2)n1 [Example 16, {7-(Cyclopentylamino)-3-[2-(cyclopentylamino)-4-pyrimidinyl]-pyrazolo[1,5-a]pyridin-2-yl}(phenyl)methanone]	6.40
c1ccc(Cc2nn3ccccc3c2-c2ccnc(NC3CCCC3)n2)cc1 [Example 17, 4-(2-Benzylpyrazolo[1,5-a]pyridin-3-yl)-N-cyclopentyl-2-pyrimidinamine]	5.70
c1ccc(Cc2nn3c(NC4CCCC4)cccc3c2-c2ccnc(NC3CCCC3)n2)cc1 [Example 19, N-{4-[2-Benzyl-7-(cyclopentylamino)pyrazolo[1,5-a]pyridin-3-yl]-2-pyrimidinyl}-N-cyclopentylamine]	6.10

Compound	pIC50
COCc1nn2ccccc2c1-c1ccnc(NC2CCCC2)n1 [Example 20, N-Cyclopentyl-4-[2-(methoxymethyl)pyrazolo[1,5-a]pyridin-3-yl]-2-pyrimidinamine]	4.82
COCc1nn2c(SC)cccc2c1-c1ccnc(NC2CCCC2)n1 [Example 21, N-Cyclopentyl-4-[2-(methoxymethyl)-7-(methylsulfanyl)pyrazolo[1,5-a]pyridin-3-yl]-2-pyrimidinamine]	5.34
COCc1nn2c(NC3CCCC3)cccc2c1-c1ccnc(NC2CCCC2)n1 [Example 22, N-Cyclopentyl-3-[2-(cyclopentylamino)-4-pyrimidinyl]-2-(methoxymethyl)pyrazolo[1,5-a]pyridin-7-amine]	5.92
c1cc(NC2CCCC2)n2nc(CCCN3CCCC3)c(-c3ccnc(NC4CCCC4)n3)c2c1 [Example 23, N-Cyclopentyl-3-[2-(cyclopentylamino)-4-pyrimidinyl]-2-[3-(1-pyrrolidinyl)propyl]pyrazolo[1,5-a]pyridin-7-amine]	< 5.60
CSc1nccc(-c2c(CNC(C)C)nn3ccccc23)n1 [Example 24, N-({3-[2-(Methylsulfanyl)-4-pyrimidinyl]pyrazolo[1,5-a]pyridin-2-yl}methyl)-2-propanamine]	5.68
CC(C)NCc1nn2ccccc2c1-c1ccnc(NC2CCCC2)n1 [Example 25, N-Cyclopentyl-4-{2-[(isopropylamino)methyl]pyrazolo[1,5-a]pyridin-3-yl}-2-pyrimidinamine]	4.57
CC(C)NCc1nn2c(NC3CCCC3)cccc2c1-c1ccnc(NC2CCCC2)n1 [Example 26, N-Cyclopentyl-3-[2-(cyclopentylamino)-4-pyrimidinyl]-2-[(isopropylamino)methyl]pyrazolo[1,5-a]pyridin-7-amine]	< 5.60
CC(C)NCCCc1nn2c(Cl)cccc2c1-c1ccnc(NC2CCCC2)n1 [Example 27, 4-{7-Chloro-2-[3-(isopropylamino)propyl]pyrazolo[1,5-a]pyridin-3-yl}-N-cyclopentyl-2-pyrimidinamine]	4.64
CC(C)NCCCc1nn2c(NC3CCCC3)cccc2c1-c1ccnc(NC2CCCC2)n1 [Example 28, N-Cyclopentyl-3-[2-(cyclopentylamino)-4-pyrimidinyl]-2-[3-(isopropylamino)propyl]pyrazolo[1,5-a]pyridin-7-amine]	< 5.30
COCCOCc1nn2c(Cl)cccc2c1-c1ccnc(NC2CCCC2)n1 [Example 29, 4-{7-Chloro-2-[(2-methoxyethoxy)methyl]pyrazolo[1,5-a]pyridin-3-yl}-N-cyclopentyl-2-pyrimidinamine]	4.64
COCCNc1cccc2c(-c3ccnc(NC4CCCC4)n3)c(COCCOC)nn12 [Example 30, 3-[2-(Cyclopentylamino)-4-pyrimidinyl]-2-[(2-methoxyethoxy)methyl]-N-(2-methoxyethyl)pyrazolo[1,5-a]pyridin-7-amine]	5.33
COCCOCc1nn2c(NC3CCCC3)cccc2c1-c1ccnc(NC2CCCC2)n1 [Example 31, N-Cyclopentyl-3-[2-(cyclopentylamino)-4-pyrimidinyl]-2-[(2-methoxyethoxy)methyl]pyrazolo[1,5-a]pyridin-7-amine]	5.82
CC(C)c1nn2ccccc2c1-c1ccnc(NC2CCCC2)n1 [Example 32, N-Cyclopentyl-4-(2-isopropylpyrazolo[1,5-a]pyridin-3-yl)pyrimidin-2-amine]	5.36
CC(C)c1nn2c(NC3CCCC3)cccc2c1-c1ccnc(NC2CCCC2)n1 [Example 33, N-Cyclopentyl-3-[2-(cyclopentylamino)pyrimidin-4-yl]-2-isopropylpyrazolo[1,5-a]pyridin-7-amine]	5.70
CSc1nccc(-c2c(C3CC3)nn3ccccc23)n1 [Example 34, 2-Cyclopropyl-3-[2-(methylthio)pyrimidin-4-yl]pyrazolo[1,5-a]pyridine]	< 4.40
c1ccn2nc(C3CC3)c(-c3ccnc(NC4CCCC4)n3)c2c1 [Example 35, N-Cyclopentyl-4-(2-cyclopropylpyrazolo[1,5-a]pyridin-3-yl)pyrimidin-2-amine]	5.51
